Test results taken from PMC11029812, “Liver-targeted polymeric prodrugs delivered subcutaneously improve tafenoquine therapeutic window for malaria radical cure” (Science Advances, 2024).
Read-outs that look alike come from different tables or passages of the source.

Legend:
[1] = Tissue pharmacokinetics of released TQ and its metabolites in liver, plasma and urine (LC-MS/MS); type: in vivo, BALB/c mice
P. berghei = P. berghei luciferase and blood parasitemia model of causal prophylaxis; type: in vivo
Description: Efficacy studies in the P. berghei mouse model of causal prophylaxis were conducted at the Walter Reed Army Institute of Research, Experimental Therapeutics Branch as previously described ([46]).
Luciferase-expressing P. berghei ANKA sporozoites were obtained from laboratory-reared female Anopheles stephens mosquitoes as previously described ([46]). Sporozoites were recovered by the method of Li et al. ([62]) and quantitated using a hemocytometer. Sporozoites isolated from the same batch of mosquitoes were inoculated into mice on the same day to control biological variability in sporozoite preparations. Each animal was inoculated IV in the tail vein with approximately 10,000 sporozoites suspended in 0.1-ml volume on day 0.
Age-matched, 40 young adult (7-week-old) female C57BL/6 albino mice were purchased from Charles River Laboratories (Frederick, MD). On arrival, animals were acclimated for 7 days in quarantine. Mice were housed and maintained at a temperature range of 64° to 79°F, 34 to 68% relative humidity, and a 12-hour light/dark cycle. Food and water were provided ad libitum. Animals were fed a standard rodent maintenance diet. All animal use, care, and handling was conducted under an IACUC-approved animal use protocol in an Association for Assessment and Accreditation for Laboratory Animal Care International (AAALACi)–accredited facility with a Public Health Services Animal Welfare Assurance and in compliance with the Animal Welfare Act and other federal statutes and regulations relating to laboratory animals.
TQ was dissolved at a stock concentration of 1 mg/ml in 25% hydroxy-β-cyclodextrin acidified to pH 5 with acetic acid and diluted in DPBS for final dosing solutions. Polymers for parenteral administration were prepared in DPBS at the final dosing concentrations. All drug concentrations were calculated per the free base molecular weights of TQ. TQ parent compounds were administered intragastrically via an intragastric feeder tube. Vehicle groups (0.1 ml of DPBS) and polymer groups were administered SC in the right flank. Free TQ, vehicle, and polymers were given as a single dose on day −1. In this model, the pSVCTQ doses studied were 5.0, 7.5, or 10 mg/kg TQ equivalent.
Whole-body IVIS imaging of bioluminescence activity from luciferase-expressing P. berghei–infected mice was performed using a PerkinElmer IVIS Spectrum. Mice were evaluated at 24, 48, and 72 hours after sporozoite inoculation to determine liver- and blood-stage malaria infection. Mice received luciferin (150 mg/kg, Gold Biotechnology, St. Louis, MO) intraperitoneally in a maximal volume of 150 μl. Three minutes after luciferin administration, the mice were anesthetized with inhaled isoflurane and positioned ventral side up in the IVIS Spectrum on a 37°C platform. The mice continued to receive isoflurane through nose cone delivery. The camera exposure times used were 1 or 5 min for the 24-, 48-, and 72-hour time points with f-stop = 1, and the large binning setting was chosen. Quantitative analysis of bioluminescence emitted from whole bodies or […] (ROI) were determined by measuring the luminescence signal intensity in photons per second using the ROI settings of the Living Image 3.0 software. The ROI, expressed in total flux of photons, was set to measure the abdominal area at the location of the liver from whole-body imaging ([62]). The data were generally found to fit a normal distribution. Means and SDs of photon measurement were calculated.
On days 5 to 31 after infection, mice were analyzed for blood-stage infections by quantitation of malaria parasites in erythrocytes by flow cytometry. Blood (3 μl) from the mouse tail was collected directly into 0.3 ml of 1% heparinized isotonic buffer (PBS saline). After addition of 1 ml of 0.04% of glutaraldehyde for fixation, the samples were incubated at 4°C for 60 min. Cells were centrifuged at 450g for 5 min. […]

G6PD-deficient huRBCs = assay: Hemotoxicity in humanized G6PD deficiency mouse model; type: in vivo, human RBCs engrafted in NOD/SCID mice; settings: single dose day 0; pSVCTQ SC, TQ oral; A− G6PD-deficient donor
Description: (§1) Following procedures as previously published ([46]), hemotoxicity studies using huRBC engraftments were conducted in mice.
(§2) Female (8 to 9 weeks) NOD.CB17-Prkdcscid/J [nonobese diabetic severe combined immunodeficient (NOD/SCID)] mice were purchased from The Jackson Laboratory (Bar Harbor, ME). The animals were housed in a cage maintained in a specific pathogen–free animal facility and were acclimated for 1 week in the facility before initiation of experimental procedures. Sterile food and water were provided ad libitum throughout the study as previously described ([64]). All animal studies were performed under IACUC-approved protocols and adhere to the principles stated in the Guide for the Care and Use of Laboratory Animals ([100]).
(§3) Polymer solutions for SC administration were prepared in DPBS at the final dosing concentrations. All drug concentrations were calculated per the free base molecular weights of TQ. The TQ parent compound was administered intragastrically via an intragastric feeder tube. Polymers and vehicle were administered SC in the right flank. TQ, pSVCTQ, and vehicle were given as a single dose on day 0. In this model, the TQ dose studied was 10 mg/kg; pSVCTQ was tested at doses of 2.5, 5.0, or 10 mg/kg TQ equivalent.
(§4) The percentage of huRBCs at the end of this period was analyzed by flow cytometry to evaluate glycophorin A (huRBCs) and Ter119 (mouse RBCs) circulating in peripheral blood. […] The G6PD-deficient huRBC NOD/SCID mice were dosed with pSVCTQ or parent drug prepared as described above, with three to four mice per group. On days 4 and 7 following dosing, huRBC levels were assessed again by flow cytometry (glycophorin^+Ter119^−), along with the percentage of murine reticulocytes (CD71^+Ter119) as an additional marker of hemolytic toxicity. Mice were euthanized on day 7 following initiation of treatment.
(§5) Microsoft Excel and GraphPad Prism were used throughout the PK analysis to process the data, calculate pharmacokinetic parameters, and yield statistical information. A linear regression model was produced using the least squares fitting method with 1/x^2 scaling for the assay calibrators. […] For the G6PD deficiency model, data analysis was performed using GraphPad Prism (GraphPad Software). […] An F test comparing the two dose-response curves was also run. For all other work, a combination of Microsoft Excel and GraphPad Prism was used.

[2] = as above; type: in vivo, human RBCs engrafted in NOD/SCID mice; settings: female, NOD/SCID (NOD.CB17-Prkdcscid/J), mouse, in vivo; curve fit of Fig. 4B; single dose; pSVCTQ SC, TQ oral; day 7; read-out: Dose resulting in 50% hemolysis (TD50)
Description: as §1, §2, §3, §4, §5

[3] = design: method as in PMID 28749773; settings: G6PD-deficient cohort, cited from earlier work
[4] = Polymer biodistribution (IVIS imaging) and liver hepatocyte localization (histology); type: in vivo; settings: mice
Description: Mice were dosed SC with rhodamine-labeled pSVCTQ at the dose of equivalent 25 mg/kg TQ, which were then euthanized at 8 hours after injection. Selected organs, including liver, kidneys, lungs, spleen, heart, and brain, were harvested and washed with PBS before imaging studies (IVIS) using fluorescent mode at (excitation/emission: 530/585 nm), Caliper Xenogen IVIS (PerkinElmer, Hopkinton, MA). The radiant efficiency emitted from the organs in each mouse was subsequently quantified using Xenogen Living Image software. Mice treated with PBS served as controls (fig. S12). Three mice were included in each group.
Rhodamine-labeled pSVCTQ was formulated in PBS and SC administered in mice at a dose of 25 mg/kg TQ equivalent. Mice receiving PBS served as controls. The liver was harvested at 8 hours after injection and immediately fixed in 10% neutral buffered formalin at 4°C for 4 hours. After washing three times in cold PBS, the liver tissue was sunk in 15% sucrose solution for 24 hours and then in 30% sucrose solution for 24 hours at 4°C. The sucrose solution was prepared in DPBS (1×, with Mg^2+ and Ca^2+). The liver tissue was then blotted with paper tissue and embedded in an optimal cutting temperature compound. The sample was frozen in prechilled isopentane in liquid nitrogen and stored at −80°C. The 5-μm-thick sections were prepared using CryoStat at −20°C. Alexa Fluor 488 phalloidin was diluted 1:50 in PBS and used to counterstain the sections for 1 hour at room temperature (RT) to visualize cell outlines. The cell nuclei were counterstained with DAPI (blue) for 5 min at RT. Sections were imaged using an epi-fluorescent microscope (Nikon Eclipse 90i and Hamamatsu C10600 Camera at 20× magnification) using GFP-B HYQ (excitation/emission: 450/550 nm) Texas red HYQ (excitation/emission: 535/580 nm) and ultraviolet illumination (excitation/emission: 350/470 nm).

[5] = female, BALB/c, mouse, in vivo, po, 10 mg/kg
[6] = 8 hours after SC 25 mg/kg TQ equivalent

Which AUC [1, 5] does the source give for COc1cc(C)c2c(Oc3cccc(C(F)(F)F)c3)c(OC)cc(NC(C)CCCN)c2n1 (stereo not shown) [TQ, tafenoquine] here?
The AUC was 22400 ng·h/mL.

What about the “AUC, liver” value [1, 5] of the same compound?
Its value is 1404 μg/g liver*hour.

What about the Cmax [1, 5] of the same compound?
Its Cmax is 380 ng/mL.

What about the “Cmax, liver” value [1, 5] of the same compound?
Its value is 17 μg/g liver.

And the Kp [1, 5]?
Its Kp is 62.8.

And the Tmax [1, 5]?
Its Tmax is 8 h.

What about the Mice survived (P. berghei; 10 mg/kg PO, single dose day −1, 31 days, n = 5) of the same compound?
The Mice survived was 2/5.

What about the Blood parasitemia suppression (P. berghei; 10 mg/kg oral, single dose day −1) of the same compound?
Its Blood parasitemia suppression is “partial suppression of parasitemia”.

What about the “IVIS signal during days 1 to 3” value (P. berghei; 10 mg/kg single dose day −1, pSVCTQ SC, TQ oral) of the same compound?
The value was “completely suppressed”.

What about the “Median effective dose (dose that results in 50% huRBC loss by day 7 relative to vehicle control)” value (G6PD-deficient huRBCs) of the same compound?
Its value is 4.7 mg/kg.

What about the TD50 at 7 days [2] of the same compound?
The TD50 at 7 days was 5 mg/kg.

What about the “Hemolytic toxicity (decreases in hemoglobin and hematocrit)” value ([3]; 100-mg dose) of the same compound?
The value was “did not produce hemotoxicity”.

What about the “Hemolytic toxicity (decreases in hemoglobin and hematocrit)” value ([3]; 300-mg dose) of the same compound?
The value was “dose-limiting”.

Which “Liver AUC drug exposure compared with the copolymer” value ([1]; SC 10 mg/kg dose, mice (fig. S15C)) does the source give for “p(GMA-co-SVATQMA) [tri-antennary GalNAc polymeric prodrug]” here?
Its value is “equivalent to the copolymer”.

For “p(GalNAc-MA-co-SVCTQ-MA-co-RheMA) [rhodamine-labeled pSVCTQ]”, which “Fluorescence in lungs, heart, spleen, and brain (IVIS)” value [4, 6] is on record?
The value was “little fluorescence intensity”.

And the “Fluorescence in the kidneys (IVIS)” value [4, 6]?
The value was “low level of fluorescence”.

What about the “Liver accumulation (IVIS fluorescence)” value [4, 6] of the same compound?
The value was “accumulate in the liver with high selectivity”.

What about the “Liver penetration / hepatocyte distribution (cross-sectional histology)” value ([4]; liver 8 hours after SC 25 mg/kg TQ equivalent) of the same compound?
The value was “present in every hepatocyte”.

Which “Liver:plasma AUC ratio” value ([1]; 25 mg/kg, IV, mice) does the source give for p(GalNAc-MA-co-VCTQ-MA) [pVCTQ] here?
The value was 120.

What about the “AUC, liver” value ([1]; TQ in liver, 25 mg/kg TQ equivalent, IV, mice, t = 0 to 336 hours) of the same compound?
Its value is 2725 μg/g liver*hour.

And the “Cmax, liver” value ([1]; TQ in liver, 25 mg/kg, IV, mice)?
The value was 48 μg/g liver.

With “p(GalNAc-co-MSEMA-co-SVCTQMA) [lower GalNAc polymeric prodrug design]” as the compound, how does the “PK properties compared with pSVCTQ” value ([1]; TQ in liver and plasma after SC 10 mg/kg dose, mice (fig. S15B)) read?
Its value is “preserved much of the PK properties”.
